Data on five compounds can be found in ChEMBL document CHEMBL1201862, “PubChem BioAssay data set” (2004).

Test systems include SK-MEL-5; SF-539; OVCAR-8; OVCAR-5; 786-0; HCT-15; T47D; IGROV-1; CCRF-CEM; NCI-H522; MDA-MB-435; TK-10; RPMI-8226; CAKI-1; LOX IMVI; SNB-19; NCI/ADR-RES; SN12C; UACC-62; COLO 205.
Holding throughout (assay): DTP human tumour cell line panel, 48 h

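Five compound concentrations were applied to cells in 96-well plates for 48 hours; endpoints were derived by simple linear interpolation of the resulting dose-response curve. Abbreviation: GI50, concentration required for 50% inhibition of growth.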 Active and inactive are the calls of the source. No stated cut-off is given here; in the data, active = GI50 up to about 1.1 µM and inactive = higher.

For the compound `Cn1c(=O)c2c(nc(Nc3ccc(Cl)cc3)n3c(=O)n(-c4ccccc4)c(=O)n23)n(C)c1=O`, the GI50 is > 100 µM (inactive) with SK-MEL-5; > 100 µM (inactive) with SF-539; > 100 µM (inactive) in the assay on OVCAR-8; > 100 µM (inactive) in the assay on OVCAR-5; > 100 µM (inactive) with 786-0; > 100 µM in the assay with HCT-15. For the same compound, the GI50 with T47D, in the assay with IGROV-1, in the assay with CCRF-CEM, in the assay with NCI-H522, in the assay on MDA-MB-435 and in the assay with TK-10 was > 100 µM (inactive) each time. Further, the GI50 in the assay on RPMI-8226, with CAKI-1, in the assay with LOX IMVI, in the assay with SNB-19, in the assay with NCI/ADR-RES and in the assay on SN12C was > 100 µM (inactive) throughout. Besides, the GI50 in the assay with UACC-62 and in the assay with COLO 205 was > 100 µM (inactive) each time.
Regarding `N#Cc1c(=O)c2cc([N+](=O)[O-])ccc2n2c1[nH]c1ccccc12`, the GI50 is 13.3 µM (inactive) in the assay on SK-MEL-5; 17.3 µM (inactive) in the assay on SF-539; 5.27 µM (inactive) with OVCAR-8; 6 µM (inactive) in the assay on OVCAR-5; 6.75 µM (inactive) in the assay on 786-0; 7.64 µM with HCT-15. Further, the GI50 was 4.44 µM (inactive) with T47D; 12.5 µM (inactive) in the assay on IGROV-1; 5.37 µM (inactive) with CCRF-CEM; 2.18 µM (inactive) in the assay with NCI-H522; 10.3 µM (inactive) with MDA-MB-435; 5.92 µM (inactive) in the assay on TK-10. The GI50 with RPMI-8226 is 1.91 µM (inactive); in the assay on CAKI-1, 6.84 µM (inactive); in the assay on LOX IMVI, 5.24 µM (inactive); in the assay with SNB-19, 5.41 µM (inactive); with NCI/ADR-RES, 3.54 µM (inactive); in the assay with SN12C it was 9.93 µM (inactive). The GI50 is 4.59 µM (inactive) in the assay with UACC-62 and 4.99 µM (inactive) with COLO 205.
Consider `CCCCCCCCC[C@@H]1C[C@@H]2CCC3C(C(=O)OC)=C(C)N=C(N1)N32` (stereo not given in full), for which the GI50 is 5.32 µM (inactive) in the assay on SK-MEL-5; 3.29 µM (inactive) in the assay on SF-539; 4.79 µM (inactive) with OVCAR-8; 18 µM (inactive) with OVCAR-5; 4.22 µM (inactive) with 786-0; 16.5 µM in the assay with HCT-15. Moreover, the GI50 with T47D was 10.6 µM (inactive); with IGROV-1, 4.72 µM (inactive); with CCRF-CEM, > 100 µM (inactive); in the assay with NCI-H522, 2.96 µM (inactive); in the assay with MDA-MB-435, 2.25 µM (inactive); with TK-10, 13.2 µM (inactive). Also, the GI50 was 6 µM (inactive) in the assay with RPMI-8226; 17.3 µM (inactive) in the assay on CAKI-1; 9.86 µM (inactive) with LOX IMVI; 4.18 µM (inactive) in the assay on SNB-19; 18.7 µM (inactive) with NCI/ADR-RES; 14.6 µM (inactive) in the assay on SN12C. Also, the GI50 is 4.52 µM (inactive) in the assay on UACC-62 and 3.37 µM (inactive) in the assay on COLO 205.
Consider `N#Cc1c(-c2ccc([N+](=O)[O-])cc2)cc(-c2ccc(Nc3ccnc4cc(C(F)(F)F)ccc34)cc2)nc1N`, for which the GI50 in the assay on SK-MEL-5 is 25.5 µM (inactive); in the assay with SF-539 it was 26.9 µM (inactive); in the assay with OVCAR-8, 20.1 µM (inactive); with OVCAR-5, 30.9 µM (inactive); in the assay on 786-0 it was 4.1 µM (inactive); with HCT-15 it was 5.96 µM. In addition, the GI50 in the assay with T47D is 7.89 µM (inactive); with IGROV-1 it was 8.53 µM (inactive); with CCRF-CEM it was 1.88 µM (inactive); in the assay with NCI-H522, 17.2 µM (inactive); in the assay on MDA-MB-435 it was 9.14 µM (inactive); in the assay with TK-10 it was > 48.2 µM (inactive). The GI50 in the assay with RPMI-8226 was 4.27 µM (inactive); in the assay with CAKI-1 it was 18.5 µM (inactive); in the assay on LOX IMVI, 3.64 µM (inactive); with SNB-19 it was 18.6 µM (inactive); in the assay with NCI/ADR-RES, 8.89 µM (inactive); in the assay on SN12C it was 17.9 µM (inactive). Besides, the GI50 was 62.4 µM (inactive) in the assay with UACC-62 and 28.3 µM (inactive) in the assay on COLO 205.
Turning to `O=C(O)CCc1nc2ccccc2[nH]1` [PROCODAZOLE], the GI50 was > 100 µM (inactive) in the assay with SK-MEL-5; > 100 µM (inactive) in the assay on SF-539; > 100 µM (inactive) in the assay with OVCAR-8; > 100 µM (inactive) with OVCAR-5; > 100 µM (inactive) in the assay on 786-0; > 100 µM in the assay on HCT-15. In addition, the GI50 in the assay on T47D, in the assay on IGROV-1, in the assay with CCRF-CEM, in the assay with NCI-H522, in the assay with MDA-MB-435 and in the assay with TK-10 was > 100 µM (inactive) each time. In addition, the GI50 in the assay with RPMI-8226, in the assay on CAKI-1, in the assay on LOX IMVI, in the assay on SNB-19, in the assay on NCI/ADR-RES and with SN12C was > 100 µM (inactive) in each case. The GI50 with UACC-62 and with COLO 205 was > 100 µM (inactive) each time.

What is called GI50 is the concentration at which growth is held to half of that of the control.
